Where two headings read alike, the source gives them in different places.
Key:
Type in all cases: in vitro ADME
UGT1A6 = molecular target: T1, UGT1A6 (Homo sapiens, UniProt P19224); experiment: Recombinant UGT1A6-catalyzed 4-MU glucuronidation inhibition; details: for activity at 100 µM / inhibition at 100 µM: human, pH 7.4, probe 4-methylumbelliferone (4-MU); for activity at 100 µM: UGT1A6, 100 μM of compound, 4-MU substrate, read-out: residual activity; for inhibition type: UGT1A6, Dixon and Lineweaver-Burk plots; for inhibition at 100 µM: UGT1A6, at 100 μM, read-out: inhibition percent
T1 construct: purchased BD Gentest Corp. (Woburn, MA, USA); host or cells: baculovirus-infected insect cells
T1 sequence (P19224 27-532): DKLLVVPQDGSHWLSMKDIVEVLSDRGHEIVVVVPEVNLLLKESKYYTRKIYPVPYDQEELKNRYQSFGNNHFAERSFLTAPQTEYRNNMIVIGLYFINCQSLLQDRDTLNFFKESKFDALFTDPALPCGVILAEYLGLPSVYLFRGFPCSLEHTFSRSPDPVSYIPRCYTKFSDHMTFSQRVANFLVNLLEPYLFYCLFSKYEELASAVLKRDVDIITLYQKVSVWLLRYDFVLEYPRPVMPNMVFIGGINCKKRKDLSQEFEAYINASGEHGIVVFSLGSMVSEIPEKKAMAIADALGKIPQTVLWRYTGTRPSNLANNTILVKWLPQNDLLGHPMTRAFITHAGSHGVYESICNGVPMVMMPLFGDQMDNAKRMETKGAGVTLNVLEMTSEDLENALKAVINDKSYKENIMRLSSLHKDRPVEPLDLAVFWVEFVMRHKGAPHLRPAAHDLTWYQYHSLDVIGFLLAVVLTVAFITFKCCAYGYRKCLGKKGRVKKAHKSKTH
Source text: (§1) 4-Methylumbelliferone (4-MU), 4-methylumbelliferone-β-D-glucuronide (4-MUG), Tris-HCl, 7-hydroxycoumarin, and uridine-5′-diphosphoglucuronic acid (UDPGA) (trisodium salt) were purchased from Sigma-Aldrich (St. Louis, MO). Recombinant human UGT isoforms (UGT1A1, UGT1A3, UGT1A4, UGT1A6, UGT1A7, UGT1A8, UGT1A9, UGT1A10, UGT2B4, UGT2B7, and UGT2B15) expressed in baculovirus-infected insect cells were obtained from BD Gentest Corp. (Woburn, MA, USA). Ophiopogonin D (OD), ophiopogonin D′ (OD′), methylophiopogonanone A (MA), methylophiopogonanone B (MB), and ruscorectal (RU) were purchased from Sichuan Weikeqi Biotechnology Company (Chengdu, Sichuan, China). The purity of these compounds was above 95%. All other reagents were of HPLC grade or of the highest grade commercially available.
(§2) 4-MU, the nonspecific probe substrate for all the UGT isoforms except UGT1A4, was used in the present study to initially screen the inhibition potential of maidong's components towards UGT isoforms as previously reported. In brief, the incubation system (total volume = 200 μL) consisted of recombinant UGTs, 5 mM UDPGA, 5 mM MgCl2, 50 mM Tris-HCl (pH = 7.4), and 4-MU in the absence or presence of different concentrations of maidong's components. The compounds were dissolved in DMSO, and the final concentration of DMSO was below 0.5% (v/v). The used incubation time and protein concentration were previously determined to ensure the reaction rate within the linear range. The 4-MU concentration was equal to known K m or S 50 values for each UGT isoform. After 5 min preincubation at 37°C, the incubation reaction was initiated via adding UDPGA to the mixture system. The reactions were quenched by adding 100 μL acetonitrile with 7-hydroxycoumarin (100 μM) as internal standard. Centrifuged at 20000 ×g for 10 min, an aliquot of supernatant was transferred to an autoinjector vial for HPLC analysis. The HPLC system (Shimadzu, Kyoto, Japan) contained a SCL-10A system controller, two LC-10AT pumps, a SIL-10A autoinjector, and a SPD-10AVP UV detector. Chromatographic separation was carried out using a C18 column (4.6 × 200 mm, 5 μm, Kromasil) at a flow rate of 1 mL/min and UV detector at 316 nm. The mobile phase consisted of acetonitrile (A) and H2O containing 0.5% (v/v) formic acid (B). The following gradient condition was used: 0–15 min, 95–40% B; 15–20 min, 10% B; 20–30 min, 95% B.
To determine the inhibition kinetic type and parameters (K i), the reaction velocity (V) was determined at multiple concentrations of maidong's components and 4-MU (or TFP). Dixon plot and Lineweaver-Burk plot were used to fit the data. The inhibition kinetic type was evaluated through determining the intersection point in the Dixon and Lineweaver-Burk plots.
K m value is the substrate concentration in which the velocity reached half of the maximum velocity (V max) of the reaction. K i value is the inhibition constant.

UGT2B4 = molecular target: T2, UGT2B4 (Homo sapiens, UniProt P06133); experiment: Recombinant UGT2B4-catalyzed 4-MU glucuronidation inhibition; details: pH 7.4, probe 4-methylumbelliferone (4-MU), UGT2B4, 100 μM of compound, 4-MU substrate, read-out: residual activity
T2 construct: purchased BD Gentest Corp. (Woburn, MA, USA); host or cells: baculovirus-infected insect cells
T2 sequence (P06133 24-528): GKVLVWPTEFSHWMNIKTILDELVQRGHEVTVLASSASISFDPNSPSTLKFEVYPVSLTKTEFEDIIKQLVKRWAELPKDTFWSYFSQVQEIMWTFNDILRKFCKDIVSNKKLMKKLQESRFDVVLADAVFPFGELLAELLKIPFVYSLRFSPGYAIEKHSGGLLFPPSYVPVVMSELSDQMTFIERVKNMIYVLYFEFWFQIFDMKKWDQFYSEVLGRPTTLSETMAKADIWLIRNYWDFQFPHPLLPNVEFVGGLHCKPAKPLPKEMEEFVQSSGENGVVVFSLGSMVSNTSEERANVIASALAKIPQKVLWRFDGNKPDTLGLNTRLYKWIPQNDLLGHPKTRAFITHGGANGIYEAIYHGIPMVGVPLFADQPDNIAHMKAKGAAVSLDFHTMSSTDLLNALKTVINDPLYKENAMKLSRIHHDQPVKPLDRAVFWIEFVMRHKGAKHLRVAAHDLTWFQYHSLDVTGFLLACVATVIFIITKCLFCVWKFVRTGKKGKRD
Source text: as §1, §2

UGT1A7 = molecular target: T3, UGT1A7 (Homo sapiens, UniProt Q9HAW7); experiment: Recombinant UGT1A7-catalyzed 4-MU glucuronidation inhibition; details: pH 7.4, probe 4-methylumbelliferone (4-MU), UGT1A7, 100 μM of compound, 4-MU substrate, read-out: residual activity
T3 construct: purchased BD Gentest Corp. (Woburn, MA, USA); host or cells: baculovirus-infected insect cells
T3 sequence (Q9HAW7 26-530): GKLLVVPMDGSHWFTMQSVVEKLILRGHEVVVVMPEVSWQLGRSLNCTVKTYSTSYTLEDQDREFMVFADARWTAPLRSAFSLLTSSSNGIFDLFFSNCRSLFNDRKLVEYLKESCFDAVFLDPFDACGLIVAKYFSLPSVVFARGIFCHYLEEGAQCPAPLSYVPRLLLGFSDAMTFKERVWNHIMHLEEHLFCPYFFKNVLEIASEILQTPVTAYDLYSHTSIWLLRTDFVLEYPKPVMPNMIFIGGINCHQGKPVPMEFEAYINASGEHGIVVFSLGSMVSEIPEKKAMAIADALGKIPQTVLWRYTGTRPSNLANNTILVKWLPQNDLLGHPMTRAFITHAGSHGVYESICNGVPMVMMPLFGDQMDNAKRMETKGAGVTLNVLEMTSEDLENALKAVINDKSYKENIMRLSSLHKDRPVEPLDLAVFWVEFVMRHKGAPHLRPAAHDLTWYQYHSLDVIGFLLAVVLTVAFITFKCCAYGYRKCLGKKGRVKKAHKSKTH
Source text: as §1, §2

Compound | activity at 100 µM (UGT1A6) | activity at 100 µM (UGT2B4) | activity at 100 µM (UGT1A7) | Ki (UGT1A6) | inhibition type (UGT1A6) | inhibition at 100 µM (UGT1A6) | Ki (UGT1A6; UGT1A6-catalyzed 4-MU glucuronidation, read-out: inhibition kinetic parameter (Ki))
Cc1c(O)c(C)c2c(c1O)C(=O)[C@H](Cc1ccc3c(c1)OCO3)CO2 [MA, methylophiopogonanone A] | 67 ± 1.7% | 71.1 ± 1.5% | 57.5 ± 10.8% |  |  |  | 
COc1ccc(C[C@@H]2COc3c(C)c(O)c(C)c(O)c3C2=O)cc1 [MB, methylophiopogonanone B] | 65.3 ± 2% | 73.2 ± 1.2% | 83.4 ± 5.9% |  |  |  | 
C[C@@H]1CC[C@@]2(OC1)O[C@H]1C[C@H]3[C@@H]4CC=C5C[C@@H](O)C[C@@H](O[C@@H]6O[C@H](C)[C@H](O)[C@H](O[C@@H]7OC[C@@H](O)[C@H](O)[C@H]7O)[C@H]6O[C@@H]6O[C@@H](C)[C@H](O)[C@@H](O)[C@H]6O)[C@]5(C)[C@H]4CC[C@]3(C)[C@H]1[C@@H]2C [OD, ophiopogonin D] | 12.8 ± 3.1% | 102 ± 2.6% | 144 ± 8.7% | 20.6 µM | noncompetitively inhibited | 87.2% | 
C[C@@H]1CC[C@@]2(OC1)O[C@H]1C[C@H]3[C@@H]4CC=C5C[C@@H](O[C@@H]6O[C@H](CO)[C@@H](O)[C@H](O[C@@H]7OC[C@@H](O)[C@H](O)[C@H]7O)[C@H]6O[C@@H]6O[C@@H](C)[C@H](O)[C@@H](O)[C@H]6O)CC[C@]5(C)[C@H]4CC[C@]3(C)[C@H]1[C@@H]2C [OD′, ophiopogonin D′] | 12.1 ± 1.9% | 118 ± 21.8% | 122 ± 1.3% |  | noncompetitively inhibited | 87.9% | 5.3 µM
CC1CCC2(OC1)OC1CC3C4CC=C5CC(O)CC(O)C5(C)C4CCC3(C)C1C2C (stereo not drawn) [RU, ruscorectal] | 65.9 ± 11.6% | 88.4 ± 1.6% | 52.4 ± 7.4% |  |  |  | 

Reference: paper PMC4229968, “The Inhibition of the Components from Shengmai Injection towards UDP-Glucuronosyltransferase” (Evidence-based Complementary and Alternative Medicine : eCAM, 2014)
